Data published in paper PMC8213057, “Targeting ALK2: An Open Science Approach to Developing Therapeutics for the Treatment of Diffuse Intrinsic Pontine Glioma” (Journal of Medicinal Chemistry, 2020).

Legend:
CAMK4 = CAMK4 (Homo sapiens, UniProt Q16566); conditions: 1 μM; Run 1, Run 2
CDC7/DBF4 = CDC7/DBF4 (Homo sapiens, UniProt O00311); conditions: 1 μM; Run 1, Run 2
CDK2/cyclin O = CDK2/cyclin O (Homo sapiens, UniProt P24941); conditions: 1 μM; Run 1, Run 2
CHK2 = CHK2 (Homo sapiens, UniProt O96017); conditions: 1 μM; Run 1, Run 2
Chain of CHK2 (O96017 whole entry): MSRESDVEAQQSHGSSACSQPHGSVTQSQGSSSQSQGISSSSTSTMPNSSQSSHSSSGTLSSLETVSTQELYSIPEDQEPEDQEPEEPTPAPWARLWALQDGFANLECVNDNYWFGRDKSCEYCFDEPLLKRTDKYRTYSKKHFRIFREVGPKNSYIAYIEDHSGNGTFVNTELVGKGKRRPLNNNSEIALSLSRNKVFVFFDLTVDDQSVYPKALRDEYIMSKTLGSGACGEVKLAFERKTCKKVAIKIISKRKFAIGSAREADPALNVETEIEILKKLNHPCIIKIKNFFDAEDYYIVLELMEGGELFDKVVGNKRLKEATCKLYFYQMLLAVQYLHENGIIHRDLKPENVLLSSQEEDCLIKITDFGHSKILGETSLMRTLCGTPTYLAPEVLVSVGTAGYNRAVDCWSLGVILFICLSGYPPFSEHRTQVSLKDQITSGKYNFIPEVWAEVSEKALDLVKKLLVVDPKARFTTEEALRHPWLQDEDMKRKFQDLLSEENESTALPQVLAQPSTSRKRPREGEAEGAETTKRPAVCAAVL

DYRK4 = biological target: T1, DYRK4 (Homo sapiens, UniProt Q9NR20); conditions: 1 μM; Run 1, Run 2
T1 sequence (Q9NR20 1-520): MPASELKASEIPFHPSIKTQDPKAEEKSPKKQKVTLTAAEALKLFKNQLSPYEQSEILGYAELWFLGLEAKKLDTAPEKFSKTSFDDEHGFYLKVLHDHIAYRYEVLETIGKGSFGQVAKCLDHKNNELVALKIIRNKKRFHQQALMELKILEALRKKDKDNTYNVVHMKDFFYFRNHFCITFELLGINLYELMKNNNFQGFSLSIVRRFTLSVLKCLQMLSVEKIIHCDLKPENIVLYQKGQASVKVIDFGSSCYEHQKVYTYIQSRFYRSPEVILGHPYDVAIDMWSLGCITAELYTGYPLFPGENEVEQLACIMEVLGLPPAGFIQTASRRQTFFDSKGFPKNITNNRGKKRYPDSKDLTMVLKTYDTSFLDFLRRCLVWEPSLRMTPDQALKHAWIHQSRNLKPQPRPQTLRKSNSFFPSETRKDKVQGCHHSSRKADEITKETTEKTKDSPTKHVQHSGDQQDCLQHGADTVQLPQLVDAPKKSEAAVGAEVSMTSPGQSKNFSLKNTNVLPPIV

MEK5 = biological target: T2, MEK5 (Homo sapiens, UniProt Q13163); conditions: 1 μM; Run 1, Run 2
T2 sequence (Q13163 1-448): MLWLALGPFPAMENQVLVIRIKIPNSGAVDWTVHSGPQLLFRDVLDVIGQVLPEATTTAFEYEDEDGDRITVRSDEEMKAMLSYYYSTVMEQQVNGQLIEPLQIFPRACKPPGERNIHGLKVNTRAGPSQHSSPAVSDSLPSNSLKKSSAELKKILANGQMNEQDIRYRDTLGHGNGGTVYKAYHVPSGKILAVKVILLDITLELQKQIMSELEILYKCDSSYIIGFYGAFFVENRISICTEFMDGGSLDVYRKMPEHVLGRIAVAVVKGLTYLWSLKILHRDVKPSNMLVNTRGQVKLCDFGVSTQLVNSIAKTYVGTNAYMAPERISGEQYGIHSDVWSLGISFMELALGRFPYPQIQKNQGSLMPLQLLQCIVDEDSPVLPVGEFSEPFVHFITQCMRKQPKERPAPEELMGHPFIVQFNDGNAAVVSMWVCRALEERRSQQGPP

PASK = PASK (Homo sapiens, UniProt Q96RG2); conditions: 1 μM; Run 1, Run 2
PKCzeta = biological target: T3, PKCzeta (Homo sapiens, UniProt Q05513); conditions: 1 μM; Run 1, Run 2
T3 sequence (Q05513 1-592): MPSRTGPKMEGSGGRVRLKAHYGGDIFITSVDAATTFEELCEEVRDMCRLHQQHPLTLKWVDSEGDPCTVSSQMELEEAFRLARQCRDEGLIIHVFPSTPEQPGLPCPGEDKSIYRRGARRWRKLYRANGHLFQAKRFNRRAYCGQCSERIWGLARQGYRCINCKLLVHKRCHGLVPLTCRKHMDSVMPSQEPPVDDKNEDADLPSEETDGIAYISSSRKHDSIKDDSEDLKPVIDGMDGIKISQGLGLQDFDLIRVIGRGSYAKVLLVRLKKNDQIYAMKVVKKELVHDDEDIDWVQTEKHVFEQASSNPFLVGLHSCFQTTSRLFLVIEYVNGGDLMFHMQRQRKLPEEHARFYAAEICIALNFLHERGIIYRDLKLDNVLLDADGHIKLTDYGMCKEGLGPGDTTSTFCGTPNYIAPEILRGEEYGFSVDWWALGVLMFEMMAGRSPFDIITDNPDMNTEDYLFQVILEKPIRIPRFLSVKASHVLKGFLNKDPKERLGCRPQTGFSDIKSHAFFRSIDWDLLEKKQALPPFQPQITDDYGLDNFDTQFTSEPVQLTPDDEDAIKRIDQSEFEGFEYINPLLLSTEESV

RSK1 = RSK1 (Homo sapiens, UniProt Q15418); conditions: 1 μM; Run 1, Run 2
Chain of RSK1 (Q15418 whole entry): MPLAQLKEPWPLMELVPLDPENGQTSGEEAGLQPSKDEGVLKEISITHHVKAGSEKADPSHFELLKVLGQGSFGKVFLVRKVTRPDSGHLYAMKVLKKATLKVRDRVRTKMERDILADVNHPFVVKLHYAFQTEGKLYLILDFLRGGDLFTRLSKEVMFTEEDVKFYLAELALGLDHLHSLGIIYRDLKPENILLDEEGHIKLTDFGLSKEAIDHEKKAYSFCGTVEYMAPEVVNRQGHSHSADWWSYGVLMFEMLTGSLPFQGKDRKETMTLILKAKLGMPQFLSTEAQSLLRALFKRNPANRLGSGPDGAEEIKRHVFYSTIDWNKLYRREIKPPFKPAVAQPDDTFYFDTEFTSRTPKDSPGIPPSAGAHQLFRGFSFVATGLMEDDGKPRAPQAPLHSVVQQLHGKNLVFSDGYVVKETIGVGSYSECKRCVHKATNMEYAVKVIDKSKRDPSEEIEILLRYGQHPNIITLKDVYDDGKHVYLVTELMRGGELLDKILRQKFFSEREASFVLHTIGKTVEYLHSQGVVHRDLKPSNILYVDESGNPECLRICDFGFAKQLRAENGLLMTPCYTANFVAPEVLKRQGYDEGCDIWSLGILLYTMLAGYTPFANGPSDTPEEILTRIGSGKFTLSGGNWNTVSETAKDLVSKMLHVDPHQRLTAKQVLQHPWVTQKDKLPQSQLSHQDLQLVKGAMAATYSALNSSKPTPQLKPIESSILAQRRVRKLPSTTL

STK32C/YANK3 = STK32C/YANK3 (Homo sapiens, UniProt Q86UX6); conditions: 1 μM; Run 1, Run 2
Chain of STK32C/YANK3 (Q86UX6 whole entry): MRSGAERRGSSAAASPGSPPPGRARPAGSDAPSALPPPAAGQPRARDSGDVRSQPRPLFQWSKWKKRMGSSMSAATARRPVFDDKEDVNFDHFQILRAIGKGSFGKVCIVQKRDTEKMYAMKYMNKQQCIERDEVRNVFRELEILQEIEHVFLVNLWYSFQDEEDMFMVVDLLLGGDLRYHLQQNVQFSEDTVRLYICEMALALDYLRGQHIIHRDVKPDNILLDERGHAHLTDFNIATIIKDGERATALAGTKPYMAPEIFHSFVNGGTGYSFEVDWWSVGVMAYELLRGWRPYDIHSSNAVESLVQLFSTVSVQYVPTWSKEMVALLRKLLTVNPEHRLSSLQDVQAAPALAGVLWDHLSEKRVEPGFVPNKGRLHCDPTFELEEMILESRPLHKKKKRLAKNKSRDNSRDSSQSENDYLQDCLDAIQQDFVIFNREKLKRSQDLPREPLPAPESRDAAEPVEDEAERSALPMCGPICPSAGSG

TYK2 = TYK2 (Homo sapiens, UniProt P29597); conditions: 1 μM; Run 1, Run 2
Chain of TYK2 (P29597 whole entry, species assumed): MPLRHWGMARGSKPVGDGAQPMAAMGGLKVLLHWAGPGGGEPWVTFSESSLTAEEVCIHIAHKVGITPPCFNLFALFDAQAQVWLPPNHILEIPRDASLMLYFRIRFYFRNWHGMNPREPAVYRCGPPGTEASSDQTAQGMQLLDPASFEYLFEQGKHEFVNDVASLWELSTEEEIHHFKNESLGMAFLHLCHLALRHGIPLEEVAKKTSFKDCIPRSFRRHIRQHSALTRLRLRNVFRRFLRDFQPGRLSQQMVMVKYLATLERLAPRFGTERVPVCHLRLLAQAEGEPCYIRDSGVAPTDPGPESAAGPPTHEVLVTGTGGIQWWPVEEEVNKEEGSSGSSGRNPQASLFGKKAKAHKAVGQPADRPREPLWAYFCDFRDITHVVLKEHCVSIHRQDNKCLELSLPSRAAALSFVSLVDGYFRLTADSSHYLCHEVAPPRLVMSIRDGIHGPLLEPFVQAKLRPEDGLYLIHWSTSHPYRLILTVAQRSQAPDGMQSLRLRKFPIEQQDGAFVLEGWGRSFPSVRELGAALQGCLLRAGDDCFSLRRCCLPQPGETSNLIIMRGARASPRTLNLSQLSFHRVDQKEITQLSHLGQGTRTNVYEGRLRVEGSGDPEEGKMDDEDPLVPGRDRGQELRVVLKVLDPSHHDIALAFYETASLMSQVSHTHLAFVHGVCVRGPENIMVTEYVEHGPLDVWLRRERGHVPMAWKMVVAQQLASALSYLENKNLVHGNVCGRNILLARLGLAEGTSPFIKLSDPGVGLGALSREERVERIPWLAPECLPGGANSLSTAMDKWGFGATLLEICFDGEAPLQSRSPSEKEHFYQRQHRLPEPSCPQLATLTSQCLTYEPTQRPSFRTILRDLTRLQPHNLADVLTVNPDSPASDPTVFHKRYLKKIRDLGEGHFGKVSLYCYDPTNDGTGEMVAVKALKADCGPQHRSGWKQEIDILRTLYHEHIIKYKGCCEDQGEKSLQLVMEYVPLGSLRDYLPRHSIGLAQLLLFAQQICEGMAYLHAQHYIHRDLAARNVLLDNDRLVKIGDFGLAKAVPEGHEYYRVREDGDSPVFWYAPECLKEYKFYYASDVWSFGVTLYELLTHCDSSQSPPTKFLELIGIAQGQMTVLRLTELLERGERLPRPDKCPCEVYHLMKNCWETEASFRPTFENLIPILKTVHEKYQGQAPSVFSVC

CDK7/cyclin H = CDK7/cyclin H (Homo sapiens, UniProt P50613); experiment: biochemical; conditions: read-out: % enzyme activity, 1 μM; Run 1, Run 2
Chain of CDK7/cyclin H (P50613 whole entry): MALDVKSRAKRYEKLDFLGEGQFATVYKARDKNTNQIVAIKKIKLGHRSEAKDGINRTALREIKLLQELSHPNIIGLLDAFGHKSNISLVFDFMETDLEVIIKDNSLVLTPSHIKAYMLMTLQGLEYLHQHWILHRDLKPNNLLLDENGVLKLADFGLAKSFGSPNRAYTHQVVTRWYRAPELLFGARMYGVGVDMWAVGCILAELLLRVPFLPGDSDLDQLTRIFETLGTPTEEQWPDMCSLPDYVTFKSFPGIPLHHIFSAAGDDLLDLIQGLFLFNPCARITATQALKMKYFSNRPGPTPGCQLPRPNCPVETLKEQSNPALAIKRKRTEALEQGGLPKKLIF
Chain of CDK7/cyclin H (P51946 whole entry partner): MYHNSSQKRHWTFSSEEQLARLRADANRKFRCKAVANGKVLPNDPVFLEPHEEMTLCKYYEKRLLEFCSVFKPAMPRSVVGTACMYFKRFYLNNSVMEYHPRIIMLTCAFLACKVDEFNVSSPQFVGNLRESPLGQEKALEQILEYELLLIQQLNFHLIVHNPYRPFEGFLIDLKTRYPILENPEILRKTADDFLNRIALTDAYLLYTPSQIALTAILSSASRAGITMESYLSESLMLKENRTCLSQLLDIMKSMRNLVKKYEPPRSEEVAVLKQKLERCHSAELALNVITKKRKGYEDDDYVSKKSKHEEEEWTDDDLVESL
Chain of CDK7/cyclin H (P51948 whole entry partner): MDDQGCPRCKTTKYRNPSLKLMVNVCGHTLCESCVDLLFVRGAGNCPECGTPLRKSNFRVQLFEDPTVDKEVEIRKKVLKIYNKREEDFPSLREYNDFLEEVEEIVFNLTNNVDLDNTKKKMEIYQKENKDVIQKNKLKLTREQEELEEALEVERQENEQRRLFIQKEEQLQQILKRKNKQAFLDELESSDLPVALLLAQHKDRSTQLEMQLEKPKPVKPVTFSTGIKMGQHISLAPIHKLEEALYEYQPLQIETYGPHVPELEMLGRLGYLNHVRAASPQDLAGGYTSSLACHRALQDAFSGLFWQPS

CDK9/cyclin T1 = CDK9/cyclin T1 (Homo sapiens, UniProt P50750); experiment: biochemical; conditions: read-out: % enzyme activity, 1 μM; Run 1, Run 2
MEK2 = MEK2 (Homo sapiens, UniProt P36507); experiment: biochemical; conditions: read-out: % enzyme activity, 1 μM; Run 1, Run 2
RSK3 = RSK3 (Homo sapiens, UniProt Q15349); experiment: biochemical; conditions: read-out: % enzyme activity, 1 μM; Run 1, Run 2
TESK2 = TESK2 (Homo sapiens, UniProt Q96S53); experiment: biochemical; conditions: read-out: % enzyme activity, 1 μM; Run 1, Run 2
Chain of TESK2 (Q96S53 whole entry): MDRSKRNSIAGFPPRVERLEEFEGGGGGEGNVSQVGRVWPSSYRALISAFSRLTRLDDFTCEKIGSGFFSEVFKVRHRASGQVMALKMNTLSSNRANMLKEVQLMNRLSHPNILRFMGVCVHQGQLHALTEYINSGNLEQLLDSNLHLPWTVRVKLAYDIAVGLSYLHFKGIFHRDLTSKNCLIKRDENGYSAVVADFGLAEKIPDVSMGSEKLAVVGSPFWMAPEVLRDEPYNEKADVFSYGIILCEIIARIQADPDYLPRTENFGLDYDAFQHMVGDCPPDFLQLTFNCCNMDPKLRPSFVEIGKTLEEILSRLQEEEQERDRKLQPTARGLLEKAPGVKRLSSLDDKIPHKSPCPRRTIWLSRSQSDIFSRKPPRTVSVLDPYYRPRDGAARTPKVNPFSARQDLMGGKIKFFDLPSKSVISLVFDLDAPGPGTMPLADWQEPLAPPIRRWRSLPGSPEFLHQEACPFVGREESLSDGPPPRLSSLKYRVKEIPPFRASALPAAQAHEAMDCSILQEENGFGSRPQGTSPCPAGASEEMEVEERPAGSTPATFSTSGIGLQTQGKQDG

Chain of CAMK4 (Q16566 whole entry): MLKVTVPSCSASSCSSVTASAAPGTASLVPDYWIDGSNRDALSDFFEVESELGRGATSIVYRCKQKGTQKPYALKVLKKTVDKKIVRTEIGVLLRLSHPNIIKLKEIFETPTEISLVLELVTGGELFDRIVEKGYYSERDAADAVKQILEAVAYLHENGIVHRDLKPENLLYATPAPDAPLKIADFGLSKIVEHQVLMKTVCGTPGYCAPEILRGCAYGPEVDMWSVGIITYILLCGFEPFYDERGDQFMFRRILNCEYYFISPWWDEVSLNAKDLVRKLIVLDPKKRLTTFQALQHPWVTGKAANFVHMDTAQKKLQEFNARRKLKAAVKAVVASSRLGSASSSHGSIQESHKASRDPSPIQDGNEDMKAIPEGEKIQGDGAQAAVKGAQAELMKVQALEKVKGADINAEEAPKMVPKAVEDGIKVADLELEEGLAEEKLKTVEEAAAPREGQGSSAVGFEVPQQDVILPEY

## COc1cc(-c2cncc(-c3ccc(N4CCN(C)CC4)cc3)c2C)cc(F)c1C(N)=O [Compound 26a, 2-Fluoro-6-methoxy-4-(4-methyl-5-(4-(4-methylpiperazin-1-yl)phenyl)pyridin-3-yl)benzamide]
CYP2C19
  CYP inhibition: > 50 µM
CAMK4
  % enzyme activity: 98.68%
CDC7/DBF4
  % enzyme activity: 91.84%
CDK2/cyclin O
  % enzyme activity: 93.78%
CHK2
  % enzyme activity: 99.41%
DYRK4
  % enzyme activity: 102.49%
MEK5
  % enzyme activity: 85.95%
PASK
  % enzyme activity: 93.23%
PKCzeta
  % enzyme activity: 90.40%
RSK1
  % enzyme activity: 97.99%
STK32C/YANK3
  % enzyme activity: 85.01%
TYK2
  % enzyme activity: 91.37%
CDK7/cyclin H
  remaining activity at 1 µM: 97%
CDK9/cyclin T1
  remaining activity at 1 µM: 90.8%
MEK2
  remaining activity at 1 µM: 87.1%
RSK3
  remaining activity at 1 µM: 92.2%
TESK2
  remaining activity at 1 µM: 93.9%

## COc1cc(-c2cncc(-c3ccc(N4C[C@@H](C)N(C)[C@@H](C)C4)cc3)c2C)cc(F)c1C(N)=O [Compound 26c, 2-Fluoro-6-methoxy-4-(4-methyl-5-(4-((3R,5S)-3,4,5-trimethylpiperazin-1-yl)phenyl)pyridin-3-yl)benzamide]
CYP2C19
  CYP inhibition: > 50 µM
CAMK4
  % enzyme activity: 100.90%
CDC7/DBF4
  % enzyme activity: 93.55%
CDK2/cyclin O
  % enzyme activity: 88.53%
CHK2
  % enzyme activity: 101.19%
DYRK4
  % enzyme activity: 100.24%
MEK5
  % enzyme activity: 92.97%
PASK
  % enzyme activity: 98.21%
PKCzeta
  % enzyme activity: 91.43%
RSK1
  % enzyme activity: 101.00%
STK32C/YANK3
  % enzyme activity: 91.96%
TYK2
  % enzyme activity: 99.47%
CDK7/cyclin H
  remaining activity at 1 µM: 96.1%
CDK9/cyclin T1
  remaining activity at 1 µM: 97.1%
MEK2
  remaining activity at 1 µM: 94%
RSK3
  remaining activity at 1 µM: 101%
TESK2
  remaining activity at 1 µM: 92.2%
